Test results taken from patent US8933065B2, “N-benzylamide substituted derivatives of 2-(acylamido)acetic acid and 2-(acylamido)propionic acids: potent neurological agents” (The University of North Carolina at Chapel Hill, priority 2008, dated 2015).

Columns and labels:
Assay type in all cases: in vivo
[1] = system: maximal electroshock (MES)-induced seizures; assay: Maximal electroshock seizure (MES) test, mice (ip); settings: for ED50: Mus musculus
Method: (§2) The maximal electroconvulsive shock (MES) test is regarded as a standard screen for anticonvulsant activity in terms of inhibition of seizure spread in generalized tonic-clonic seizures.
(§3) Groups of at least 8 male albino CF No. 1 mice or male albino Sprague-Dawley rats are treated with 10 mL/kg i.p. or 4 mL/kg p.o. of the test compound solution, respectively. The electrical stimulus in the MES test is 50 mA at 60 Hz for mice and 150 mA at 60 Hz for rats, both delivered for 0.2 sec. Abolition of the hind leg tonic extensor component of the seizure is used as the endpoint.

behavioral toxicity = assay: Toxicity (behavioral toxicity), rat (po)
Method: (§1) Tests are conducted in groups of at least 8 mice or rats to determine the intrinsic neurotoxicity (neuromuscular impairment) after administration of the test compound by the route of administration to be used in the pharmacology studies. Neurotoxicity is determined in male CF No 1 mice by the rotarod procedure. Inability of the mouse to maintain its equilibrium in 3 trials during 1 min on this rotating rod (6 rpm) is used as an indication of such impairment. In Sprague-Dawley rats, minimal motor impairment (MMI) is determined by overt evidence of ataxia, abnormal gait, and stance.

[2] = system: maximal electroshock (MES)-induced seizures; assay: Maximal electroshock seizure (MES) test, rat (po); settings: Rattus norvegicus, read-out: MES, ED50, rat, po
Method: as §2, §3

[3] = system: neurologic toxicity (rotorod test); assay: Neurologic toxicity, rotorod test, mice (ip)
Method: as §1

[4] = mice, ip, 95% confidence intervals in parentheses, Table 1
[5] = mice, ip, time (h) in brackets, (terminal ring group)
[6] = behavioral toxicity, Table b608

## CC(=O)NC(C)C(=O)NCc1ccccc1 (racemic) [(R,S)-4, reference compound]
[1]; [4]
  MES, ED50: 77 (67-89) mg/kg

## CC(=O)NC(C(=O)NCc1ccccc1)c1ccco1 (racemic) [(R,S)-5, reference compound]
[1]; [4]
  MES, ED50: 10 (9.1-12) mg/kg

## CC(=O)NC(C(=O)NCc1ccccc1)c1ccccc1 (racemic) [(R,S)-6, reference compound]
[1]; [4]
  MES, ED50: 32 mg/kg

## CCOCC(NC(C)=O)C(=O)NCc1ccccc1 (racemic) [(R,S)-10, reference compound]
[1]; mice, ip
  MES, ED50: 17 mg/kg

## C=CCOCC(NC(C)=O)C(=O)NCc1ccccc1 (racemic) [(R,S)-11, reference compound]
[1]; mice, ip
  MES, ED50: >30, <100 mg/kg

## COC[C@@H](NC(C)=O)C(=O)NCc1ccc(N=[N+]=[N-])cc1 [(R)-5, (R)—N-(4-Azidobenzyl)-2-acetamido-3-methoxypropanamide, reference compound]
Behavioral toxicity; time (h) in brackets, Table 2
  Tox, TD50: > 250 mg/kg

## COC[C@@H](NC(C)=O)C(=O)NCc1ccc(C2(C(F)(F)F)N=N2)cc1 [(R)-9]
[1]; mice, ip, time (h) in brackets, Table 2, footnotes not given
  ED50: 15.1 mg/kg

## COC[C@@H](NC(C)=O)C(=O)NCc1ccc(CCc2cccc(F)c2)cc1 [(R)-13]
[2]
  ED50: < 30 mg/kg
Behavioral toxicity; behavioral toxicity, Table b607
  Tox, TD50: >30 [1] milligrams per kilogram

## COC[C@@H](NC(C)=O)C(=O)NCc1ccc(OCc2ccccc2)cc1 [(R)-20, (R)—N-4′-(Benzyloxy)benzyl 2-N-Acetamido-3-methoxypropionamide]
[1]; [5]
  MES, ED50: 5.8 [0.25] (4.4-7.2) milligrams per kilogram
[3]; rotorod test, Table b608
  Tox, TD50: 22 [0.25] (19- milligrams per kilogram
Behavioral toxicity; [6]
  Tox, TD50: >250 [1.0] milligrams per kilogram

## COC[C@@H](NC(C)=O)C(=O)NCc1ccc(OCc2ccccc2F)cc1 [(R)-21, (R)—N-4-(2-Fluorobenzyloxy)benzyl 2-Acetamido-3-methoxypropionamide]
[1]; [5]
  MES, ED50: 6.7 [0.25] (4.8-9.1) milligrams per kilogram
[3]; rotorod test, Table b608
  Tox, TD50: 37 [0.5] (29-48) milligrams per kilogram
Behavioral toxicity; [6]
  Tox, TD50: >500 milligrams per kilogram

## COC[C@@H](NC(C)=O)C(=O)NCc1ccc(OCc2ccc(F)cc2)cc1 [(R)-22, (R)—N-4-(4-Fluorobenzyloxy)benzyl 2-Acetamido-3-methoxypropionamide]
Behavioral toxicity; [6]
  Tox, TD50: >500 milligrams per kilogram

## COC[C@@H](NC(C)=O)C(=O)NCc1ccccc1 [(R)—B, (2R)-2-(acetylamino)-N-benzyl-3-methoxypropanamide, reference compound]
Behavioral toxicity; time (h) in brackets, Table 2
  Tox, TD50: > 500 mg/kg

## COC[C@H](NC(C)=O)C(=O)NCc1ccc(OCc2cccc(F)c2)cc1 [(S)-3, (S)-2-Acetamido-N-(4-(3-fluorobenzyloxy)benzyl)-3-methoxypropanamide]
[3]; time (h) in brackets, Table 2
  Tox, TD50: >300 [0.5]

## COC[C@H](NC(C)=O)C(=O)NCc1ccc(N=[N+]=[N-])cc1 [(S)-5, (S)—N-(4-Azidobenzyl)-2-acetamido-3-methoxypropanamide, reference compound]
Behavioral toxicity; time (h) in brackets, Table 2
  Tox, TD50: > 30 mg/kg

## COC[C@H](NC(C)=O)C(=O)NCc1ccc(OCc2cccc(F)c2)cc1 [(S)-10, (S)-2-Acetamido-N-(4-(3-fluorobenzyloxy)benzyl)-3-methoxypropanamide]
[1]; mice, ip, time (h) in brackets, Table 3, NINDS ASP
  MES, ED50: >300 milligrams per kilogram
[3]; rotorod test, Table 3
  Tox, TD50: >300 milligrams per kilogram

## COC[C@H](NC(C)=O)C(=O)NCc1ccccc1 [(S)—B, reference compound]
[3]; time (h) in brackets, Table 2
  Tox, TD50: >300 [0.5]

## CC(=O)NC(C(=O)NCc1ccc(C)cc1)c1ccccc1 (stereo not drawn) [D, reference compound]
[1]; mice (ip), text b213
  ED50: ~300 mg/kg

## COC[C@@H](NC(C)=O)C(=O)NCc1ccc([N+](=O)[O-])cc1 [F, reference compound]
[1]; mice (ip), text b213
  ED50: 100 to 300 mg/kg
